Experimental data from patent publication US9464064B2, “HCV helicase inhibitors and methods of use thereof” (University of Kansas, priority 2011, dated 2016).

Molecular target: T1, HCV NS3 helicase NS3h_1b(con1) (Hepatitis C virus genotype 1b, UniProt Q9WMX2)
T1 construct: truncated C-terminally His-tagged NS3 proteins lacking the N-terminal protease, called NS3h; His-tag (C); made in house
Assay: MBHA screen of NCI mechanistic set library at 20 μM (percent inhibition, compound interference)
Type: biochemical
Conditions: compounds at 20 μM; for Inh. (%) (Inhibition): calculated from Equation 1
How it was run: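 Molecular beacon-based DNA unwinding assay; compounds screened at 20 μM in triplicate, with DMSO-only negative and 500 nM dT20 positive controls. Fluorescence (ex 643/em 670 nm) was read before and 30 min after adding ATP to 1 mM. Percent inhibition came from the change relative to DMSO controls; interference from pre-ATP fluorescence versus DMSO controls.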

[1] = MBHA with DNA substrate, assay interference calculated with Equation 2
[2] = assay interference calculated with Equation 2 (fluorescence vs DMSO-only controls before ATP)

T1 sequence (Q9WMX2 1192-1657): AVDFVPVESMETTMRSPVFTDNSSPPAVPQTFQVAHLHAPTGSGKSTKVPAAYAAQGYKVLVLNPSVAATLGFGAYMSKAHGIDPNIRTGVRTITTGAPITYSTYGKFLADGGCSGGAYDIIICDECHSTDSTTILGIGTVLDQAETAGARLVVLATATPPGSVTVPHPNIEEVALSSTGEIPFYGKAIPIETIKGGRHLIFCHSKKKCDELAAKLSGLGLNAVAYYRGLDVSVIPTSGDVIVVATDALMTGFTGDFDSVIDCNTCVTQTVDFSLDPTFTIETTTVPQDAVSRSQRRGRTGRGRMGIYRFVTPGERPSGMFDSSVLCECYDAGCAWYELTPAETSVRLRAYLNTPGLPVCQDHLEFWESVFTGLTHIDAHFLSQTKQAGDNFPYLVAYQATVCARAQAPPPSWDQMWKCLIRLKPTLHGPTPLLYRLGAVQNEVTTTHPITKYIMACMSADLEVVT

Row | SMILES | Int.* (Ratio) (Interference) [1] | Inh. (%) (Inhibition) (MBHA with DNA substrate) | Inh. (%) (Inhibition) (MBHA with a DNA substrate) | Int.* (Ratio) (Interference) [2]
1 | COC(C(=O)C(O)C(C)O)C1Cc2cc3cc(OC4CC(OC5CC(O)C(O)C(C)O5)C(O)C(C)O4)c(C)c(O)c3c(O)c2C(=O)C1OC1CC(OC2CC(OC3CC(O)C(OC)C(C)O3)C(O)C(C)O2)C(O)C(C)O1 (centres unmarked) [Compound 269146] | 0.89 Ratio | 15.0% | – | –
2 | CO[C@@H]1C[C@](C)(O)Cc2cc3c(c(O)c21)C(=O)c1c(O)cc2c(c1C3=O)O[C@@H]1O[C@@]2(C)[C@H](O)[C@@H](N(C)C)[C@@H]1O [Compound 269148] | – | – | −4.1% | 0.71 Ratio
3 | Cc1cc(NCCCCCCCNc2cc(C)nc3cc(N)ccc23)c2ccc(N)cc2n1 [Compound 273829] | 0.26 Ratio | 105.0% | – | –
4 | COc1cc2c(cc1Oc1ccc(OC)c3c1CC1c4c(cc(OC)c(OC)c4-3)CCN1C)CC1c3c(cc(OC)c(OC)c3-2)CCN1C (centres unmarked) [Compound 274893] | 0.88 Ratio | 16.2% | – | –
5 | C[C@@H](N)C(=O)NC(CO)C(O)C(N)C=O.Cl (some centres unmarked) [Compound 278619] | 1.15 Ratio | 1.1% | – | –
6 | CC[C@H](C)C(=O)O[C@H]1CCC=C2C=C[C@H](C)[C@H](CC[C@@H]3C[C@@H](O)CC(=O)O3)[C@H]21 [Compound 281245] | – | – | −3.7% | 1.08 Ratio
7 | C=C1C(=O)OC2C1CC1OC2C(C)CCC/C(C)=C\CCC1(C)O (centres unmarked) [Compound 282752] | – | – | −5.5% | 1.00 Ratio
8 | CCCCCCCCCCCCCCCCCCOP(=O)([O-])OCC[N+](C)(C)C [Compound 282880] | 0.85 Ratio | 5.8% | – | –
9 | CN(CO)c1nc(N(C)CO)nc(N(C)CO)n1 [Compound 283162] | 1.08 Ratio | −12.0% | – | –
10 | O=C1NC(=O)[C@H]2[C@H]3C=C[C@@H]([C@@H]12)[C@@H]1[C@H]2C(=O)NC(=O)[C@H]2[C@H]31 [Compound 284356] | 1.10 Ratio | 0.0% | – | –
11 | Nc1ncnc2c1nc(Cl)n2[C@@H]1O[C@@H]2COP(=O)(O)O[C@H]2[C@H]1O [Compound 284751] | – | – | −4.0% | 1.05 Ratio
12 | C=C(NC(=O)C(=C)NC(=O)c1csc(C2=N[C@@H]3c4csc(n4)C4NC(=O)c5csc(n5)C([C@](C)(O)[C@@H](C)O)NC(=O)[C@H]5CSC(=N5)/C(=C/C)NC(=O)C(C(C)O)NC(=O)c5csc(n5)C3(CC2)NC(=O)[C@H](C)NC(=O)C(=C)NC(=O)C(=C)NC(=O)C(C(C)C)N[C@@H]2C=Cc3c([C@@H](C)O)cc(nc3[C@H]2O)C(=O)OC4C)n1)C(N)=O (some centres unmarked) [Compound 285116] | 0.90 Ratio | −0.3% | – | –
13 | Oc1cccc2cccnc12 [Compound 285166] | 0.95 Ratio | −2.2% | – | –
14 | COc1cc2c(cc1O)N=CC1CCC(O)N1C2=O (centres unmarked) [Compound 285223] | – | – | −26.2% | 1.01 Ratio
15 | NC(=O)c1csc(C2OC(CO)C(O)C2O)n1 (centres unmarked) [Compound 286193] | 1.13 Ratio | 1.1% | – | –
16 | CCN(CC)CCNC(=O)c1nn(-c2ccc(Cl)cc2)c2c1CCc1cc(OC)ccc1-2 [Compound 288010] | 1.01 Ratio | 28.3% | – | –
17 | CC12CCC3C(CCC4CC(OC(=O)Cc5ccc(N(CCCl)CCCl)cc5)CCC43C)C1CCC(=O)N2 (centres unmarked) [Compound 290205] | 1.03 Ratio | 34.9% | – | –
18 | O=C1C2=Nc3ccccc3C(O)N2c2ccccc21 (centres unmarked) [Compound 292147] | 1.07 Ratio | −2.1% | – | –
19 | COC1CC(CC2CCC(C)C(C(C)C(=O)O)O2)OC2(OC(C)(C3CCC(C)(C4OC(C5OC(O)(CO)C(C)CC5C)CC4C)O3)CC2C)C1C (centres unmarked) [Compound 292567] | 0.85 Ratio | −11.3% | – | –
20 | C=C1C(=O)OC2/C=C(/CO)[C@@H](OC(C)=O)C[C@H](O)/C(C)=C\[C@@H](OC(=O)[C@@H](C)CC)[C@@H]12 (some centres unmarked) [Compound 292663] | 0.95 Ratio | 5.1% | – | –
21 | CCN(CC)CCOC(=O)Cc1cccc2c(=O)cc(-c3ccccc3)oc12 [Compound 293015] | 0.96 Ratio | 6.7% | – | –
22 | O=C1Oc2ccccc2C(=O)/C1=C1\C=C(c2ccccc2)SS1 [Compound 293927] | 1.00 Ratio | −14.7% | – | –

Row | SMILES | Int.* (Ratio) (Interference) [1] | Inh. (%) (Inhibition) (MBHA with DNA substrate) | Inh. (%) (Inhibition) (MBHA with a DNA substrate) | Int.* (Ratio) (Interference) [2]
23 | CC(C)C1=C(O)C2=C(C(=O)C1=O)C1(C)CCCC(C)(C)C1CC2O (centres unmarked) [Compound 294577] | 0.95 Ratio | −15.9% | – | –
24 | O=C1Nc2ccc(Br)cc2/C1=C\C(=O)c1ccccc1 [Compound 294961] | – | – | −28.1% | 1.06 Ratio
25 | CC1(O)C=CC(=O)C=C1 [Compound 295156] | – | – | 9.0% | 0.99 Ratio
26 | NCCCNCCSP(=O)(O)O [Compound 296961] | 0.92 Ratio | 17.5% | – | –
27 | COc1cc2oc(=O)cc(C)c2cc1[N+](=O)[O-] [Compound 299879] | 0.94 Ratio | 20.5% | – | –
28 | COc1ccc(-c2csc(=[N+]3CCCCC3)s2)cc1.O=S(=O)(O)O [Compound 302358] | 1.05 Ratio | 1.1% | – | –
29 | C=C1C(=O)C2=CC1CCC(=O)C1(C)CCC(OC(C)=O)C(C)(C)C1CC2O (centres unmarked) [Compound 302979] | 0.89 Ratio | −8.3% | – | –
30 | CCC12C[N+]3([O-])CCc4c([nH]c5ccccc45)C(C(=O)OC)(c4cc5c(cc4OC)N(C)C4C(O)(C(=O)OC)C(OC(C)=O)C6(CC)C=CCN7CCC54C76)CC(C3)C1O2 (centres unmarked) [Compound 304421] | 0.97 Ratio | 25.6% | – | –
31 | C=C1C(C)C2C(Cc3ccccc3)NC(=O)C23C(OC(C)=O)/C=C/C(C)(O)CC(C)C/C=C/C3C1O (centres unmarked) [Compound 305222] | 1.03 Ratio | 12.2% | – | –
32 | Nc1nc(N)c2cc(Sc3cccc(C(F)(F)F)c3)ccc2n1 [Compound 305782] | 0.87 Ratio | 28.4% | – | –
33 | CC(C)(C)NCCC(O)c1cc(C(F)(F)F)nc2c(C(F)(F)F)cccc12.O=P(O)(O)O (centres unmarked) [Compound 305819] | 0.99 Ratio | 28.1% | – | –
34 | CC(=O)N(C)c1ccc(Nc2cc(C)[nH]c3ccc4ncnc4c23)cc1.Cl [Compound 305884] | – | – | 8.9% | 1.04 Ratio
35 | C[C@@H]1CC[C@@]2(OC1)O[C@H]1CC3[C@@H]4CC=C5C[C@@H](O[C@@H]6O[C@H](CO)[C@@H](O[C@@H]7O[C@@H](C)[C@H](O[C@@H]8O[C@@H](C)[C@H](O)[C@@H](O)[C@@H]8O)[C@@H](O)[C@H]7O)[C@H](O)[C@H]6O[C@@H]6O[C@@H](C)C(O)[C@@H](O)[C@H]6O)CC[C@]5(C)[C@H]4CC[C@]3(C)[C@H]1[C@@H]2C (some centres unmarked) [Compound 306864] | 0.86 Ratio | 1.3% | – | –
36 | O=NN(CCCl)C(=O)NCc1ccc[n+]([O-])c1 [Compound 307454] | – | – | −2.9% | 1.08 Ratio
37 | CN(C)CCN1C(=O)c2cccc3cc(N)cc(c23)C1=O [Compound 308847] | 1.05 Ratio | −13.3% | – | –
38 | CC(=O)O.Cc1c2cc[n+](CCN3CCCCC3)cc2c(C)c2c1[nH]c1ccc(O)cc12 [Compound 311153] | 0.29 Ratio | 5.0% | – | –
39 | CCP(CC)CC.[Au+].[Cl-] [Compound 313981] | – | – | −3.8% | 0.93 Ratio
40 | COc1cc2c3c(n(C)c(=O)c2cc1OC)-c1cc2c(cc1C3=O)OCO2 [Compound 314622] | 0.70 Ratio | 23.1% | – | –
41 | O=C1c2ccccc2C(=O)c2c(O)c(NCCNCCO)cc(O)c21 [Compound 316157] | 0.70 Ratio | 36.4% | – | –
42 | C/C(=N\NC(=S)N1CCC1)c1ccccn1 [Compound 319726] | 1.02 Ratio | 3.2% | – | –
43 | Nc1ccc2c(c1)CN1C(=O)c3ccccc3C1=N2 [Compound 320846] | – | – | 10.7% | 0.90 Ratio
